From US20200138892A1, “ANTI-DIABETIC ACTIVITY OF NEEM EXTRACT AND SYNERGISTIC COMBINATIONS OF UROLITHINS A AND B” (Natreon, Inc., priority 2018, published 2020)
Marks after values point to notes of the source that are not given here.

Key:
Type in all cases: in vivo
[1] = system: streptozotocin-induced diabetic mice; experiment: Fasting blood glucose in streptozotocin-induced diabetic mice (Study 2); details: for Fasting blood glucose: 10 mg/kg body weight orally; for Effect on STZ-induced increased sugar level (FBG), words: 10 mg/kg orally for 1 month, p<0.001 vs STZ
Method: Body weight, food intake, water intake, and fasting blood glucose (blood was collected following 12 hours fasting) were measured pre-induction of diabetes. Diabetes was induced by administering streptozotocin (50 mg/kg, body weight) in sodium citrate buffer, pH 4.5, intraperitoneally. Five days after streptozotocin administration fasting blood glucose was estimated (following 12 hours of fasting). Mice having blood glucose level 250±20 mg % was considered for the following study. The male and female mice were divided into the following four groups (n=8):
Following streptozotocin-induced hyperglycemia, treatment regimen was carried out for 1 month. 3-OH-DBP (Urolithin B) and 3,8-(OH)2-DBP (Urolithin A) each was separately suspended in 0.3% CMC and administered at a dose of 10 mg/kg body weight orally for 1 month. During the 1-month treatment, body weight and food and water intake were monitored at regular intervals. FBG (following 12 hours of fasting) was estimated twice at 15-day intervals. The results were expressed in terms of mean±SEM (n=8). The data were subjected to one-way ANOVA followed by Tukey's test using GraphPad Prism 4.0 software to establish statistical significance (*p<0.05, **p<0.01, ***p<0.001; ^# p<0.05, ^## p<0.01, ^### p<0.001).

[2] = system: streptozotocin-induced diabetic mice; experiment: Fasting blood glucose in streptozotocin-induced diabetic mice (Study 1); details: for Blood sugar level (FBG): 250 mg/kg b.w. orally; for Effect on STZ-induced increased sugar level (FBG), words: Neem 50, Neem 100, Neem 250, Met 250, vs STZ-induced diabetic mice
Method: (§1) Body weight, food intake, water intake, and fasting basal blood glucose level were measured before induction on diabetes. Diabetes was induced by single administration of streptozotocin (65 mg/kg body weight) in sodium citrate buffer, pH 4.5, intraperitoneally. Five days after streptozotocin administration, fasting blood glucose level was estimated. Mice having blood glucose levels of 230±20 mg % were considered for the study. The male and female mice each were divided into the following groups:
Following streptozotocin-induced hyperglycemia, the treatment regimen was carried out for two weeks. Neem extract was suspended in 0.3% sodium carboxymethylcellulose (“CMC”) and administered at a dose of 50 mg/kg b.w., 100 mg/kg b.w., and 250 mg/kg b.w. orally for two weeks. Similarly, metformin was suspended in 0.3% CMC and administered at a dose of 250 mg/kg b.w. orally for two weeks. During the treatment schedule, body weight and food and water intake were monitored at regular intervals. Fasting blood glucose (“FBG”), HbA1C, plasma cholesterol, and triglyceride levels were monitored every week for two weeks. The results were expressed in terms of mean±SEM (n=4, from each gender). The data were subjected to one-way ANOVA followed by Tukey's test using GraphPad Prism 4.0 software to establish statistical significance (*p<0.05, **p<0.01, ***p<0.001; ^# p<0.05, ^## p<0.01, ^### p<0.001).

[3] = system: streptozotocin-induced diabetic mice; experiment: as above; details: 250 mg/kg b.w. orally, Week 3
[4] = system: streptozotocin-induced diabetic mice; experiment: HbA1C level in streptozotocin-induced diabetic mice (Study 1); details: for HbA1C level: 250 mg/kg b.w. orally
Method: as §1
Following streptozotocin-induced hyperglycemia, the treatment regimen was carried out for two weeks. Neem extract was suspended in 0.3% sodium carboxymethylcellulose (“CMC”) and administered at a dose of 50 mg/kg b.w., 100 mg/kg b.w., and 250 mg/kg b.w. orally for two weeks. Similarly, metformin was suspended in 0.3% CMC and administered at a dose of 250 mg/kg b.w. orally for two weeks. During the treatment schedule, body weight and food and water intake were monitored at regular intervals. […] The results were expressed in terms of mean±SEM (n=4, from each gender). The data were subjected to one-way ANOVA followed by Tukey's test using GraphPad Prism 4.0 software to establish statistical significance (*p<0.05, **p<0.01, ***p<0.001; ^# p<0.05, ^## p<0.01, ^### p<0.001).

[5] = STZ-induced diabetic female mice, Day 5 (Post-Induction)
[6] = STZ-induced diabetic female mice, Day 15 of treatment
[7] = STZ-induced diabetic female mice, Day 30 of treatment
[8] = STZ-induced diabetic female mice, Pre-Induction
[9] = STZ-induced diabetic male mice, Day 5 (Post-Induction)
[10] = STZ-induced diabetic male mice, Day 15 of treatment
[11] = STZ-induced diabetic male mice, Day 30 of treatment
[12] = STZ-induced diabetic male mice, Pre-Induction
[13] = STZ-induced diabetic female mice, Week 2
[14] = STZ-induced diabetic male mice, Week 2

Row | Compound | Fasting blood glucose [1, 5] | Fasting blood glucose [1, 6] | Fasting blood glucose [1, 7] | Fasting blood glucose [1, 8] | Fasting blood glucose [1, 9] | Fasting blood glucose [1, 10] | Fasting blood glucose [1, 11] | Fasting blood glucose [1, 12] | Effect on STZ-induced increased sugar level (FBG), words ([1]; female mice) | Effect on STZ-induced increased sugar level (FBG), words ([1]; male mice) | other results
1 | O=c1oc2cc(O)ccc2c2ccc(O)cc12 [3,8-(OH)2-DBP, 3,8-dihydroxy-dibenzo-α-pyrone] | 253.2 ± 5.194*** mg % | 166 ± 2.623***^, ### mg % | 153.9 ± 9.953***^, ### mg % | 95.45 ± 12.67 mg % | 252.2 ± 1.780 mg % | 166 ± 5.276***^, ### mg % | 156.7 ± 10.75***^, ### mg % | 94.12 ± 7.811*** mg % | attenuated the STZ-induced increased sugar level | attenuated the STZ-induced increased sugar level | –
2 | O=c1oc2cc(O)ccc2c2ccccc12 [3-OH-DBP, 3-hydroxy-dibenzo-α-pyrone] | 251.6 ± 1.280*** mg % | 189.8 ± 2.690***^, ### mg % | 147.3 ± 15.21***^, ### mg % | 126.8 ± 3.848 mg % | 254.6 ± 1.575 mg % | 171 ± 6.586***^, ### mg % | 134.2 ± 3.381***^, ### mg % | 99.06 ± 14.73*** mg % | attenuated the STZ-induced increased sugar level | attenuated the STZ-induced increased sugar level | –
3 | CN(C)C(=N)N=C(N)N [Metformin, metformin] | – | – | – | – | – | – | – | – | – | – | Blood sugar level (FBG) ([2]; STZ-induced diabetic female mice, Day 0): 119.2 ± 15.5 ^ mg %; Blood sugar level (FBG) ([2]; STZ-induced diabetic female mice, Week 1): 241.1 ± 22.19*** mg %; Blood sugar level (FBG) [2, 13]: 133.8 ± 9.04^## mg %; Blood sugar level (FBG) ([2]; STZ-induced diabetic male mice, Day 0): 117.3 ± 23.99 ^ mg %; Blood sugar level (FBG) ([2]; STZ-induced diabetic male mice, Week 1): 269.2 ± 25.37*** mg %; Blood sugar level (FBG) [2, 14]: 133.4 ± 7.96**^, # mg %; Effect on STZ-induced increased sugar level (FBG), words ([2]; female mice): attenuated the STZ-induced increased sugar level; Effect on STZ-induced increased sugar level (FBG), words ([2]; male mice): attenuated the STZ-induced increased sugar level; Blood sugar level (FBG) ([3]; STZ-induced diabetic female mice): 121.2 ± 8.192 mg %; Blood sugar level (FBG) ([3]; STZ-induced diabetic male mice): 136.2 ± 4.89 mg %; HbA1C level [4, 13]: 5.53 ± 0.46%; HbA1C level ([4]; STZ-induced diabetic female mice, Week 3): 3.08 ± 0.58^## %; HbA1C level [4, 14]: 5.05 ± 0.51%; HbA1C level ([4]; STZ-induced diabetic male mice, Week 3): 4.40 ± 0.65^# %; Effect on STZ-induced increase in HbA1C level, words ([4]; male and female mice, Neem 50, Neem 100, Neem 250, Met 250, vs STZ-induced diabetic mice): attenuated the STZ-induced increased in HbA1C level
